Measurements as given in article PMC11173533, “Baicalin and Baicalein Enhance Cytotoxicity, Proapoptotic Activity, and Genotoxicity of Doxorubicin and Docetaxel in MCF-7 Breast Cancer Cells” (Molecules, 2024).

Legend:
Assay type in all cases: cell-based, human
MCF-7 cells [1] = experiment: Annexin V FITC/propidium iodide double staining in MCF-7 cells; conditions: for Viable cells: docetaxel IC50 alone
Method: (§1) Unless otherwise indicated, in experiments, cells were seeded at an appropriate density for the specific assay into 96-well plates or Petri dishes. They were then incubated in standard culture conditions, which included a temperature of 37 °C, 100% relative humidity, and a 5% CO2 incubator. […] After treatment, the cells were washed with PBS and, depending on the experiment, immediately used for measurement or cultured in a fresh medium for 24 or 48 h. Control cells were treated with a corresponding volume of PBS. Additional controls for solvents were also performed.
(§2) This assay is based on the principle that, in viable cells, phosphatidylserine (PS) is located in the inner membrane (side facing the cytoplasm). However, upon induction of apoptosis, PS is translocated to the outer membrane (PS also appears on the necrotic cell surface). The exposed phosphatidylserine can be detected by protein Annexin V stained with FITC dye. The addition of propidium iodide (PI) enabled necrotic cells to be distinguished. Thus, this method is convenient for counting and differentiating live cells from those undergoing apoptosis or necrosis.
(§3) The analysis was performed according to the manufacturer’s protocol on cells immediately after the treatment and 24 or 48 h postincubation. Samples were analyzed using the flow cytometer LSR® II from Becton Dickinson (San Jose, CA, USA) using an argon laser with a wavelength of λ = 488 nm.

MCF-7 cells [2] = experiment: MTT cell viability assay on MCF-7 cells; conditions: for IC50: Homo sapiens, MCF7, 2 h incubation, breast cancer cells, used for both cell lines, read-out: Drug IC50 concentration from MTT survival curves; for Concentrations giving statistically significant decrease in survival: MCF-7, 2 h incubation with anticancer drug, MTT
Method: as §1
(§4) The principle of the method is a measurement of the absorbance of formazan, a product of the reduction of the water-soluble tetrazolium salt (MTT) by NADPH-dependent cellular oxidoreductases (mainly succinate dehydrogenase) in living cells. Formazan is insoluble in water and precipitates as purple crystals. The amount of formazan is proportional to the number of living and metabolically active cells.
(§5) After treatment, the cells were washed with PBS and cultured in a fresh medium for 48 h. Subsequently, the medium was aspirated, and an aliquot of 50 µL of 0.05 mg/mL MTT solution was added to each microplate well for 3 h. The formazan crystals were dissolved in dimethyl sulfoxide (DMSO), and the absorbance was measured at a wavelength of λ = 580 nm. The percentage of viable cells was calculated by comparing the absorbance value of the test samples to the absorbance value of the control, taking the absorbance of the control as 100%.

HUVEC-ST cells [3] = experiment: MTT cell viability assay on HUVEC-ST cells; conditions: HUVEC-ST, MTT
Method: as §1, §4, §5

HUVEC-ST cells [4] = experiment: Annexin V FITC/propidium iodide double staining in HUVEC-ST cells; conditions: docetaxel IC50 alone
Method: as §1, §2, §3

MCF-7 cells [5] = experiment: Mitochondrial membrane potential (JC-1) in MCF-7 cells; conditions: anticancer drug IC50 alone 2 h, control = 100%
Method: as §1
(§6) The mitochondrial membrane potential was measured with the membrane-permeant JC-1 fluorescent probe. […] Thus, the measurement of the ratio of JC-1 dimer to monomer fluorescence can be used for estimating changes in mitochondrial membrane potential (ΔΨm).
(§7) The cells were then incubated in complete darkness for 30 min at 37 °C. After incubation, the cells were washed to remove the dye and suspended in fresh HBSS solution. Finally, the fluorescence intensity was measured using a Cary Eclipse spectrofluorometer (Varian, Inc.) at λex/em = 475 nm/530 nm for monomers and at λex/em = 535 nm/590 nm for dimers. Subsequently, the ratio of the fluorescence intensities at 530 nm/590 nm was calculated. The mitochondrial potential in both cell lines was measured immediately after incubation with investigated compounds. The results are expressed as a percentage of the control, considered 100%.

HUVEC-ST cells [6] = experiment: Mitochondrial membrane potential (JC-1) in HUVEC-ST cells; conditions: anticancer drug IC50 alone 2 h, control = 100%
Method: as §1, §6, §7

[7] = Annexin V FITC/propidium iodide double staining in HUVEC-ST cells; conditions: human, HUVEC-ST cells, doxorubicin IC50 alone, longest postincubation time (48 h), read-out: Viable cells
Method: as §1, §2, §3

HUVEC-ST cells [8] = experiment: Alkaline comet assay in HUVEC-ST cells; conditions: doxorubicin IC50 alone, 48 h after incubation
Method: as §1
The comet assay, also known as the single-cell gel electrophoresis assay, is a highly sensitive and versatile method for measuring single- and double-stranded DNA breaks. The assay uses an electric field to move negatively charged DNA fragments through an agarose gel. The amount of migration reflects the level of DNA damage in the cells.
The analysis was performed under alkaline conditions, according to the method of Singh et al., on cells immediately after the treatment and 24 or 48 h postincubation. A suspension of cells was mixed with low-melting-point agarose (LMP type XI) and spread onto a microscope glass slide previously coated with standard melting point agarose (NMP type I). After 2 h of cells lysis in a buffer containing (2.5 mol/L NaCl, 100 mmol/L Na2-EDTA, 10 mmol/L TRIS, 1% Triton X-100), DNA unwinding and electrophoresis were carried out in a buffer containing (1 mmol/L Na2-EDTA, 300 mmol/L NaOH) and (29 V, 30 mA). Before analysis, the slides were stained with DAPI solution (2 μg/mL). One hundred randomly chosen cells were analyzed on each slide using a fluorescence microscope Zeiss Axio Scope A1 (Carl Zeiss, Oberkochen, Germany) with a video camera connected to the image-analysis system Lucia-Comet v. 7.60 (Laboratory Imaging, Praha, Czech Republic).

Structure (SMILES) | Viable cells (MCF-7 cells [1]; 24 h after incubation) [%] | Viable cells (MCF-7 cells [1]; 48 h after incubation) [%] | IC50 (MCF-7 cells [2]) [nM] | Concentrations giving statistically significant decrease in survival (MCF-7 cells [2]) [µmol/L] | Decrease in survival at highest concentration (HUVEC-ST cells [3]; 6 µmol/L, 2 h incubation) [%] | AV+/PI+ cells (HUVEC-ST cells [4]; 24 h after incubation) [%] | AV+/PI+ cells (HUVEC-ST cells [4]; longest postincubation time (48 h)) [%] | Mitochondrial membrane potential ΔΨm, % of control (MCF-7 cells [5]) [%] | Mitochondrial membrane potential ΔΨm, % of control (HUVEC-ST cells [6]) [%] | AV+/PI− cells (undergoing apoptosis) (MCF-7 cells [1]; doxorubicin IC50 alone, 48 h post-incubation) [%] | Viable cells (MCF-7 cells [2]; MCF-7, doxorubicin 3 µmol/L used alone) [%] | Concentrations giving statistically significant decrease in survival (HUVEC-ST cells [3]; 2 h incubation with anticancer drug) [µmol/L] | viability [7] [%] | DNA in the comet tail (HUVEC-ST cells [8]) [%]
CC(=O)O[C@@]12CO[C@@H]1C[C@H](O)[C@@]1(C)C(=O)[C@H](O)C3=C(C)[C@@H](OC(=O)[C@H](O)[C@@H](NC(=O)OC(C)(C)C)c4ccccc4)C[C@@](O)([C@@H](OC(=O)c4ccccc4)[C@H]21)C3(C)C [docetaxel] | 53 | 43 | 100 | ≥ 0.02 | 20 | 23 | 26 | 65 | 54 |  |  |  |  | 
COc1cccc2c1C(=O)c1c(O)c3c(c(O)c1C2=O)C[C@@](O)(C(=O)CO)C[C@@H]3O[C@H]1C[C@H](N)[C@H](O)[C@H](C)O1 [doxorubicin, Doxorubicin] |  |  | 3000 | ≥ 1 |  |  |  | 57 | 73 | 12 | 54 | ≥ 0.5 | 47 | 10
